Source: patent publication US11969408B2, “Method for improving mitophagy in subjects” (Amazentis SA, priority 2017, dated 2024)

Experiments:
Format in all cases: in vivo, human
[1] = Plasma pharmacokinetics after 28 day daily oral dosing (clinical study Part B)
Method: Part B: The study was a double-blinded, randomized, multiple ascending dose study in 36 healthy elderly male and female volunteers. Each subject was randomised to receive study product or placebo for 28 days. Part B: Repeated oral dose administration from day 1 to day 28 according to the randomization. The administration took place around 8:00 am with around 200 mL tap water, in a sitting position, and under fasting conditions. Cohort 3 (12 subjects): 1000 mg urolithin A (9 subjects) or placebo (3 subjects) soft gel capsule formulation for 28 days. After multiple dosing: Cmax, tmax, AUC0-24h, t1/2 From the plasma concentration-time data, the following pharmacokinetic parameters will be determined, as data permit using non-compartmental methods: maximum observed plasma concentration (Cmax) (ng/mL), time at which maximum observed plasma concentration (tmax) (h), area under the plasma concentration-time curve AUC(0-24h) (ng/mL*h) and AUC(0-∞) (ng/mL*h), and apparent terminal phase half-life (t1/2) (h). Blood sampling was performed for urolithin A concentration measurements at the exact timepoints with an authorised time window described in the table below: At each time point indicated in the table, a 6 mL blood sample was drawn into K2-EDTA coated tube. The blood samples were gently inverted a few times for complete mixing with the anticoagulant. The exact time of sample collection was recorded on the eCRF. Within 30 minutes following blood collection, each blood sample was centrifuged at 1500 g for 10 minutes at 4° C. From the plasma concentration-time data, the following pharmacokinetic parameters were determined, as data permit using non-compartmental methods: maximum observed plasma concentration (Cmax), time at which maximum observed plasma concentration (tmax), area under the plasma concentration-time curve AUC(0-24h) and AUC(0-∞), and apparent terminal phase half-life (t1/2).

[2] = tested on: muscle and mitochondrial gene sets in vastus lateralis; experiment: Microarray analysis / Gene Set Enrichment Analysis of skeletal muscle biopsies
Method: Muscle biopsies were collected on Day −1 and Day 28 at pre-dose under fasted state using the Bergström biopsy needle technique. The minimal amount of each muscle tissue sample was approximately 50 mg. One third of the tissue was used for gene expression (≈50 mg), and was further divided into two equal portions: one portion for RNA analysis (≈25 mg) and one portion for DNA analysis (≈25 mg), both in a Safe-lock Tubes 2.0 ml, Eppendorf (part no. 0030.120.094). Muscle tissue was snap frozen using liquid nitrogen immediately after collection and further, long term storage will be in a −80° C. freezer. The mRNA was analysed by microarray. Quantification of mtDNA over nuclear DNA provided another measure of mitochondrial abundance. The shipment was done in dry ice by specialized carrier. Temperatures were monitored using data logger during all transport. Gene expression on available remaining muscle tissues samples was performed by microarrays. […] Microarray analysis was carried out on skeletal muscle biopsies of human subjects administered urolithin A or placebo daily for 28 days. Approximately 30,000 gene transcripts were quantified by microarray in muscle biopsies and compared (day 28 vs. day −1). Gene Set Enrichment Analysis was conducted on 6166 gene sets. […]

[3] = tested on: mitochondrial content per cell in muscle tissue; experiment: Mitochondrial DNA copies per cell in muscle tissue; details: 1000 mg per day for 28 days compared with placebo
Method: Muscle biopsies were collected on Day −1 and Day 28 at pre-dose under fasted state using the Bergström biopsy needle technique. The minimal amount of each muscle tissue sample was approximately 50 mg. One third of the tissue was used for gene expression (≈50 mg), and was further divided into two equal portions: one portion for RNA analysis (≈25 mg) and one portion for DNA analysis (≈25 mg), both in a Safe-lock Tubes 2.0 ml, Eppendorf (part no. 0030.120.094). Muscle tissue was snap frozen using liquid nitrogen immediately after collection and further, long term storage will be in a −80° C. freezer. The mRNA was analysed by microarray. Quantification of mtDNA over nuclear DNA provided another measure of mitochondrial abundance. The shipment was done in dry ice by specialized carrier. Temperatures were monitored using data logger during all transport. Increasing mitochondrial content per cell in muscle tissue was also observed following dosage of 1000 mg urolithin A per day for 28 days compared with placebo.

[4] = tested on: pyruvate, lactate and glucose in plasma; experiment: Plasma metabolomics: pyruvate, lactate, glucose plasma levels; details: 1000 mg cohort, day −1 to day 28
Method: Blood sampling was performed for analysis on plasma at the exact time-points described in the table below: Blood handling procedures: at each time point indicated in the table, a 6 mL blood sample was drawn into K2-EDTA coated tube. The blood samples were gently inverted a few times for complete mixing with the anticoagulant. The exact time of sample collection was recorded on the eCRF. Within 30 minutes following blood collection, each blood sample was centrifuged at 1500 g for 10 minutes at 4° C. 30 minutes after the centrifugation, the top layer of human plasma was transferred into 2 pre-labelled polypropylene tubes, containing approximately 1500 μL of plasma. Blood cells were not transferred. All sample tubes were clearly and appropriately labelled. Tubes were capped immediately from each time point and the plasma was be frozen in an upright position at approximately −80° C. for storage. Measurement of metabolites: Samples were extracted and split into equal parts for analysis on the LC/MS/MS and Polar LC platforms. Proprietary software was used to match ions to an in-house library of standards for metabolite identification and for metabolite quantitation by peak area integration. A total of 781 metabolites were quantified. Metabolomics is the study of known measurable metabolites in a sample. […]

Structure (SMILES): O=c1oc2cc(O)ccc2c2ccc(O)cc12 [Urolithin A]
- pharmacokinetic profile over the 28 day period (mean plasma concentrations 24 h after previous dose) ([1]; 500 mg daily dosage, days 0, 7, 14, 28, 29): stable
- Cmax ([1]; both sexes, human, plasma, day 28, daily oral 1000 mg urolithin A for 28 days): 1.97 ng/mL
- AUC ([1]; both sexes, human, plasma, day 28, daily oral 1000 mg urolithin A for 28 days, read-out: AUC out to 24 hours): 17.5 ng·h/mL
- enrichment in GO_MITOCHONDRION genes expression ([2]; 1000 mg urolithin A group vs placebo group, 28 day treatment): significant
- mitochondrial and muscle gene sets expression (normalized enrichment score) ([2]; 1000 mg/day for 28 days, day 28 vs day −1, compared with placebo, FDR<0.25): significantly upregulated
- mitochondrial content per cell in muscle tissue (mitochondrial DNA copies per cell) [3]: Increasing
- pyruvate, lactate and glucose levels in plasma [4]: no significant change
